Source: patent US20090111854A1, “1,2,4-TRIAZOLE ARYL N-OXIDES DERIVATIVES AS MODULATORS OF MGLUR5” (AstraZeneca AB, priority 2007, published 2009)

Tests used:
human mGluR5d = biological target: T1, human mGluR5d (Homo sapiens, UniProt P41594); assay: FLIPR assay, functional assessment of mGluR5 antagonism (intracellular calcium mobilization); assay type: cell-based; settings: cells expressing human mGluR5d; read-out: FLIPR hmGluR5d
T1 construct: expressed in transfected cells; The culture medium contains hygromycin B and Zeocin as selection agents; The separate IP3 assay names 'GHEK stably expressing the human mGluR5d'
T1 sequence (P41594 21-942 isoform P41594-3 limits assumed): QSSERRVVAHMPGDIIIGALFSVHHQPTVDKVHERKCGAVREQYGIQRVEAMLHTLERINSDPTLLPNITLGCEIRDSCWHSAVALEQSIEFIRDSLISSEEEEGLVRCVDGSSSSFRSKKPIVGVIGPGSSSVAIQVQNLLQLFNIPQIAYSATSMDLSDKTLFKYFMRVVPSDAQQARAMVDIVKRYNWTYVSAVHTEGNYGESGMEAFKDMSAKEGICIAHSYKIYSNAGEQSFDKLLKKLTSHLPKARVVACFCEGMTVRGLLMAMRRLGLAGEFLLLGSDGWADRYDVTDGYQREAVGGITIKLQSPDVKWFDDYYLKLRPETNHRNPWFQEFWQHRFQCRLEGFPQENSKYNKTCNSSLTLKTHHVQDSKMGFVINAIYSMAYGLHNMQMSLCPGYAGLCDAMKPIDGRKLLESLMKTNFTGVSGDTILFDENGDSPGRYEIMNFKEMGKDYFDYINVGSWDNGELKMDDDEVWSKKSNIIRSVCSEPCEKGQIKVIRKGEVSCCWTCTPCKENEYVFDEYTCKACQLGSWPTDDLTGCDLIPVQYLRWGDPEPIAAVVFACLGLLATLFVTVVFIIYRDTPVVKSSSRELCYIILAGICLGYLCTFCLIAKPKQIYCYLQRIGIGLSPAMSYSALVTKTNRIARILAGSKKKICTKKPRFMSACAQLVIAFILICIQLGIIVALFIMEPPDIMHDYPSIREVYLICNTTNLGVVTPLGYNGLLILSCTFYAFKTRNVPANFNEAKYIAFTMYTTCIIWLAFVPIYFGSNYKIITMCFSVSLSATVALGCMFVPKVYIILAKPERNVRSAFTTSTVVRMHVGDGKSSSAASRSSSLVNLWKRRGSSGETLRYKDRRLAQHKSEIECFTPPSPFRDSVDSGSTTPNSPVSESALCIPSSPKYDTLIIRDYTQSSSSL
From the text: Functional Assessment of mGluR5 Antagonism it Cell Lines Expressing mGluR5D
The properties of the compounds of the invention can be analyzed using standard assays for pharmacological activity. Examples of glutamate receptor assays are well known in the art as described in for example Aramori et al., Neuron 8:757 (1992), Tanabe et al., Neuron 8:169 (1992), Miller et al., J. Neuroscience 15: 6103 (1995), Balazs, et al., J. Neurochemistry 69:151 (1997). The methodology described in these publications is to incorporated herein by reference. Conveniently, the compounds of the invention can be studied by means of an assay (FLIPR) that measures the mobilization of intracellular calcium, [Ca^2+]i in cells expressing mGluR5 or another assay (IP3) that measures inositol phosphate turnover.
Cells expressing human mGluR5d as described in WO97/05252 cultured in a mixture of high glucose DMEM with Glutamax (31966-021) (500 mL), 10% dialyzed fetal bovine serum (Hyclone #SH30079.03)(56 mL), 200 μg/mL Hygromycin B (Invitrogen 45-0430, 50 mg/mL) (2.2 mL), 200 μg/mL Zeocin (Invitrogen #R250-01; 100 mg/mL)(1.1 mL) are seeded at a density of 100,000 cells per well on collagen coated clear bottom 96-well plates with black sides and cells were allowed to adhere over night before experiments. All assays are done in a buffer containing 146 mM NaCl, 5 mM KCl, 1 mM MgCl2, 1 mM CaCl2, 20 mM HEPES, 1 mg/mL glucose and 1 mg/mL BSA Fraction IV (pH 7.4). Cell cultures in the 96-well plates are loaded for 60 minutes in the above mentioned buffer containing 6 μM of the acetoxymethyl ester form of the fluorescent calcium indicator fluo-3 (Molecular Probes, Eugene, Oreg.) in 0.025% pluronic acid (a proprietary, non-ionic surfactant polyol—CAS Number 9003-11-6). […] The fluorescence signal is sampled 50 times at 1-second intervals followed by 3 samples at 5-second intervals immediately after each of the two additions. Responses are measured as the difference between the peak heights of the response to agonist, less the background fluorescence within the sample period. […]

[1] = Determination of brain to plasma ratio in rat; assay type: in vivo, female Sprague Dawley rats; settings: female, Sprague Dawley, brain and plasma, read-out: Brain/Plasma Ratio of compound in Rat
Method: Brain to plasma ratios are estimated in female Sprague Dawley rats. The compound is dissolved in water or another appropriate vehicle. For determination of brain to plasma ratio the compound is administrated as a subcutaneous, or an intravenous bolus injection, or an intravenous infusion, or an oral administration. At a predetermined time point after the administration a blood sample is taken with cardiac puncture. The rat is terminated by cutting the heart open, and the brain is immediately retained. The blood samples are collected in heparinized tubes and centrifuged within 30 minutes, in order to separate the plasma from the blood cells. The plasma is transferred to 96-well plates and stored at −20° C. until analysis. The brains are divided in half, and each half is placed in a pre-tarred tube and stored at −20° C. until analysis. Prior to the analysis, the brain samples are thawed and 3 mL/g brain tissue of distilled water is added to the tubes. The brain samples are sonicated in an ice bath until the samples are homogenized. Both brain and plasma samples are precipitated with acetonitrile. After centrifugation, the supernatant is diluted with 0.2% formic acid. Analysis is performed on a short reversed-phase HPLC column with rapid gradient elution and MSMS detection using a triple quadrupole instrument with electrospray ionisation and Selected Reaction Monitoring (SRM) acquisition. Liquid-liquid extraction may be used as an alternative sample clean-up. The samples are extracted, by shaking, to an organic solvent after addition of a suitable buffer. An aliquot of the organic layer is transferred to a new vial and evaporated to dryness under a stream of nitrogen. After reconstitution of the residuals the samples are ready for injection onto the HPLC column.

| SMILES | IC50 (human mGluR5d) | Kp [1] |
| --- | --- | --- |
| C[C@@H](c1noc(-c2cccc(Cl)c2)n1)N(C)c1nnc(-c2cc[n+]([O-])cc2)n1C [Example 4, N-{(1S)-1-[5-(3-chlorophenyl)-1,2,4-oxadiazol-3-yl]ethyl}-N,4-dimethyl-5-(1-oxidopyridin-4-yl)-4H-1,2,4-triazol-3-amine] | 81 nM | 0.01 |
| Cn1c(-c2ccc[n+]([O-])c2)nnc1N1CCC[C@@H]1c1nnn(-c2cccc(Cl)c2)n1 [Example 6, 3-(5-{(2R)-2-[2-(3-chlorophenyl)-2H-tetrazol-5-yl]pyrrolidin-1-yl}-4-methyl-4H-1,2,4-triazol-3-yl)pyridine 1-oxide] | 108 nM | < 0.01 |
| Cn1c(-c2ccc[n+]([O-])c2)nnc1N1CCCC[C@@H]1c1nnn(-c2cccc(Cl)c2)n1 [Example 5, 3-(5-{(2R)-2-[2-(3-chlorophenyl)-2H-tetrazol-5-yl]piperidin-1-yl}-4-methyl-4H-1,2,4-triazol-3-yl)pyridine 1-oxide] | 49 nM | < 0.015 |
